Holding throughout (type): in vivo
One assay concerns poultry. As to the kind of experiment: Feed efficiency studies on poultry under strict laboratory conditions. The conditions noted are these: disease and parasite-free environment, relative to control animals. An excerpt: Studies on poultry conducted under strict laboratory conditions, that is, in a disease and parasitt -free environment, indicate that the administration of feed efficiency agents, such as the amidinoureas defined in formulae I-VI and in particular 1-(2,6-dimethylphenyl)-3-methylamidinourea, results in an increase in the feed conversion ratio and weight gain of the treated animal relative to that of the control animals. The % improvement in the feed conversion ratio in the treated animals as compared with the controls is expressed by: • Body Weight Gain of Body Weight Gain of [formula]

The test system of assay [1] is Swiss-Webster male mice or Sprague-Dawley male rats. As to the kind of experiment: Charcoal motility (intestinal transit of a charcoal suspension). The conditions noted are these: oral dose 4 mg/kg, 30 minutes before charcoal; sacrificed 30 minutes after charcoal; species (mice or rats) not given. Here is the method:
A charcoal suspension (10 cm /kg of a 10% suspension of activated charcoal, U.S.P. in 0.5% methylcellulose) is given orally either to groups of 10 Swiss-Webster male mice (18-22 g, Taconic Farms) or groups of 5 Sprague-Dawley male rats (120-140 g, Charles River Breeding Labs., Inc.) 30 minutes after an oral dose of drug or control. The animals are sacrificied 30 minutes after receiving the charcoal and the intestines are carefully removed without stretching and placed lengthwise on moist paper. The length of the intestine (pyloric sphincter to caecum) and the distance travelled by the charcoal as a fraction of that length are evaluated for each animal and group means are compared and expressed as percentage inhibition; [formula] For estimation of the duration of inhibition, the interval between dosing with drug and the administration of charcoal is varied from 30 minutes to 6 hours.

In the next assay the test system is Male Sprague-Dawley rats. The experiment in a line: Gastric emptying test (Amberlite pellet retention in the stomach). The conditions noted are these: Rattus norvegicus, 30 minutes before 30 pellets, pellets counted four hours later; for inhibition at 10 mg/kg: oral dose 10 mg/kg; for inhibition at 0.25 mg/kg: oral dose 0.25 mg/kg; for inhibition at 0.5 mg/kg: oral dose 0.5 mg/kg. How it is done:
The gastric emptying test is performed essentially as described by Brodie in Gastroenterology 50, 45-50 (1966). Male Sprague-Dawley rats (groups of five) are dosed orally with the test compounds or controls 30 minutes before the oral administration of 30 Amerlite pellets (Rohm & Haas Amberlite IRA-93, 1 mm diameter) suspended in 1 cm3 distilled water. The animals are killed with pentobarbital four hours after the pellets are given; the stomachs are removed and the number of pellets remaining in the stomach counted. The control group is compared to the drug treated group using the following formula: %retention = [(mean drug- treated) - (mean control) / 30-(mean control)] X 100.

The values below come from patent EP0073276A1, “A method of increasing the feed efficiency of animals, and compositions for use in such a method” (RORER INTERNATIONAL (OVERSEAS) INC., priority 1981, dated 1983).

The inhibition is the share of the control response that was lost under treatment.

For the compound `CNC(=N)NC(=O)Nc1c(C)cccc1C` [1-(2,6-dimethylphenyl)-3-methylamidinourea], in the assay on poultry, the feed conversion ratio result was “increase” and the weight gain result is on record as “increase”. In assay [1], `N=C(N)NC(=O)Nc1c(Br)cccc1Br` [R'=Br, R"=Br, Rm=H, R6=H, R1=H] returned an inhibition at 4 mg/kg of 91%. In assay [1], `Cc1cccc(Br)c1NC(=O)NC(=N)N` [R'=Br, R"=CH3, Rm=H, R6=H, R1=H] had an inhibition at 4 mg/kg of 89%. Regarding `CNC(=N)NC(=O)Nc1c(C)ccc(Br)c1C` [R'=CH3, R"=CH3, Rm=3Br, R6=H, R1=CH3], at 4 mg/kg the inhibition in assay [1] was 22%. The compound `Cc1cc(C)c(NC(=O)NC(=N)N)c(C)c1` [R'=CH3, R"=CH3, Rm=4-CH3, R6=H, R1=H] showed an inhibition at 10 mg/kg in the assay with Male Sprague-Dawley rats of 45%.

Consider `CCCNC(=N)NC(=O)Nc1c(C)cc(C)cc1C` [R'=CH3, R"=CH3, Rm=4-CH3, R6=H, R1=n-Pr], for which the inhibition at 4 mg/kg in assay [1] turned out to be 15%. `Cc1cccc(C)c1N(C)C(=O)NC(=N)N` [R'=CH3, R"=CH3, Rm=H, R6=CH3, R1=H]: in the assay on Male Sprague-Dawley rats (oral dose 2 mg/kg), the inhibition at 2 mg/kg is 55%. On to `Cc1cccc(C)c1NC(=O)NC(=N)N` [R'=CH3, R"=CH3, Rm=H, R6=H, R1=H], for which, in the assay on Male Sprague-Dawley rats, the inhibition at 0.25 mg/kg is 55%. In the case of `CCCCN(C(=O)NC(=N)N)c1c(C)cccc1C` [R'=CH3, R"=CH3, Rm=H, R6=n-Bu, R1=H], the inhibition at 4 mg/kg in assay [1] turned out to be 72%. `Cc1cc(Cl)ccc1NC(=O)NC(=N)N` [R'=CH3, R"=H, Rm=4-Cl, R6=H, R1=H] showed an inhibition at 10 mg/kg in the assay with Male Sprague-Dawley rats of 28%. Take `CNC(=N)NC(=O)Nc1ccccc1C` [R'=CH3, R"=H, Rm=H, R6=H, R1=CH3]: in assay [1], testing at 4 mg/kg gave an inhibition of 11%. For the compound `Cc1ccccc1NC(=O)NC(=N)N` [R'=CH3, R"=H, Rm=H, R6=H, R1=H], the inhibition at 10 mg/kg in the assay with Male Sprague-Dawley rats was found to be 54%. On to `Cc1cccc([N+](=O)[O-])c1NC(=O)NC(=N)N` [R'=CH3, R"=NO2, Rm=H, R6=H, R1=H], for which, in assay [1], the inhibition at 4 mg/kg worked out at 82%. On the same count and under the same terms, for `Cc1cccc(Cl)c1N(C)C(=O)NC(=N)N` [R'=Cl, R"=CH3, Rm=H, R6=CH3, R1=H] the value was 82%. Regarding `Cc1cccc(Cl)c1NC(=O)NC(=N)N` [R'=Cl, R"=CH3, Rm=H, R6=H, R1=H], in the assay on Male Sprague-Dawley rats, the inhibition at 0.25 mg/kg came to 43%. For the compound `N=C(N)NC(=O)Nc1c(Cl)cc(Br)cc1Cl` [R'=Cl, R"=Cl, Rm=4Br, R6=H, R1=H], the inhibition at 40 mg/kg in the assay on Male Sprague-Dawley rats (oral dose 40 mg/kg) was 54%. Turning to `N=C(N)NC(=O)Nc1c(Cl)cccc1Cl` [R'=Cl, R"=Cl, Rm=H, R6=H, R1=H], at 0.125 mg/kg the inhibition in the assay with Male Sprague-Dawley rats (oral dose 0.125 mg/kg) was 54%.

Consider `N=C(N)NC(=O)Nc1c(F)cccc1Cl` [R'=Cl, R"=F, Rm=H, R6=H, R1=H], for which the inhibition at 0.25 mg/kg with Male Sprague-Dawley rats is 60%.

Take `Cc1ccc(NC(=O)NC(=N)N)c(Cl)c1` [R'=Cl, R"=H, Rm=4-CH3, R6=H, R1=H]: at 10 mg/kg the inhibition in the assay with Male Sprague-Dawley rats was 40%. As to `N=C(N)NC(=O)Nc1ccc(Cl)cc1Cl` [R'=Cl, R"=H, Rm=4-Cl, R6=H, R1=H], in the assay on Male Sprague-Dawley rats, testing at 10 mg/kg gave an inhibition of 85%. In the case of `CCc1cccc(C)c1NC(=O)NC(=N)N` [R'=ET, R"=CH3, Rm=H, R6=H, R1=H], the inhibition at 0.5 mg/kg with Male Sprague-Dawley rats came out at 30%. Turning to `CCc1cccc(CC)c1N(C)C(=O)NC(=N)N` [R'=ET, R"=ET, Rm=H, R6=CH3, R1=H], at 4 mg/kg the inhibition in assay [1] was 12%. In turn, `CCc1cccc(CC)c1NC(=O)NC(=N)N` [R'=ET, R"=ET, Rm=H, R6=H, R1=H] returned an inhibition at 2.5 mg/kg with Male Sprague-Dawley rats (oral dose 2.5 mg/kg) of 83%. `N=C(N)NC(=O)Nc1ccc(Cl)c(Cl)c1` [R'=H, R"=H, Rm=3-Cl 4-Cl, R6=H, R1=H]: in the assay with Male Sprague-Dawley rats, testing at 10 mg/kg gave an inhibition of 74%. In assay [1], `CCNC(=N)NC(=O)Nc1ccc(N)cc1` [R'=H, R"=H, Rm=4-NH2, R6=H, R1=ET] yielded an inhibition at 4 mg/kg of 20%. For `N=C(N)NC(=O)Nc1ccc([N+](=O)[O-])cc1` [R'=H, R"=H, Rm=4NO2, R6=H, R1=H], in the assay on Male Sprague-Dawley rats, at 10 mg/kg the inhibition was 59%. For the compound `COc1cccc(C)c1NC(=O)NC(=N)N` [R'=OCH3, R"=CH3, Rm=H, R6=H, R1=H], the inhibition at 0.5 mg/kg in the assay with Male Sprague-Dawley rats came to 70%.
